± gives the standard deviation of the averaged measurements.
Columns and labels:
Experiment in all cases: CTG-3D luminescence at 96 h relative to day-0 seeding control (ratio to day 0); higher = more growth / less cytotoxicity; PDxO 3D drug screen, 96 h, CTG-3D normalised to day-0 seeding control.
[1] = test system: HCI-001 (organoid from a triple-negative breast cancer xenograft)
[2] = test system: HCI-005.E2 (organoid from a breast cancer xenograft with a HER2-positive history)
[3] = test system: HCI-003.E2 (organoid from an ER-positive breast cancer xenograft)
[4] = test system: HCI-017.E2 (organoid from an ER-positive breast cancer xenograft)
[5] = test system: HCI-024 (organoid from a breast cancer xenograft)
[6] = test system: HCI-012 (organoid from a breast cancer xenograft)

C=CC(=O)N1CCC[C@@H](n2nc(-c3ccc(Oc4ccccc4)cc3)c3c(N)ncnc32)C1 [ibrutinib]
CTG-3D luminescence at 96 h
Conditions	12.5 pM	0.00025 µM	0.005 µM	0.1 µM	1 µM	10 µM	100 µM	625 fM
[1], days in culture: 240	1.62	0.923	0.958	1.01	0.901	0.951	-0.0017	1.14
[1], days in culture: 260	2.29	1.15	2.12	0.971	1.31	1.12	-0.00311	1.46
[1], days in culture: 269	1.59	1.71	1.51	1.41	1.06	1.38	-0.0108	1.48
[1], days in culture: 327	1.45	1.07	1.49	1.3	1.25	0.932	-0.00545	1.92
[1], days in culture: 346	1.37	1.36	1.14	0.896	1.23	1.15	-0.00544	1.3
[1], days in culture: 364	1.37	1.18	1.57	0.992	1.12	1.02	-0.00371	1.6
[4], days in culture: 85	2.54	2.97	2.31	2.54	1.88	1.6	0.0338	2.31
[5], days in culture: 105	1.56	1.54	1.35	1.46	1.32	1.61	-0.00218	1.84
[5], days in culture: 122	2.18	2.8	2.14	1.49	1.64	1.91	-0.00165	3.5
[5], days in culture: 163	1.47	2.09	2.1	2.44	1.92	1.75	0.00762	2.03
[6], days in culture: 143	1.95	2	1.95	2.2	1.64	1.12	-0.0164	1.75
[6], days in culture: 162	2.49	1.94	2.13	2.98	1.72	1.53	-0.0115	2.67
[6], days in culture: 201	2.76	1.92	1.72	1.69	2.52	0.842	-0.018	1.54

CTG-3D luminescence at 96 h
Conditions	12.5 pM	0.00025 µM	0.005 µM	0.1 µM	1 µM	10 µM	100 µM	625 fM
[2]	1.47 ± 0.37	2 ± 0.18	1.22 ± 0.38	1.93 ± 0.59	1.38 ± 0.56	0.629 ± 0.11	-0.00377 ± 0.0024	1.61 ± 0.47
[3]	2.16 ± 0.65	2.46 ± 0.81	2.1 ± 0.51	1.93 ± 0.19	1.86 ± 0.43	0.903 ± 0.24	-0.00322 ± 0.006	2.1 ± 0.31
[4]	1.84 ± 0.26	2.24 ± 0.028	2.27 ± 0.054	2.21 ± 0.36	2.29 ± 0.15	1.49 ± 0.045	0.00316 ± 0.00048	2.16 ± 0.11

C[C@H](NC(=O)CCC(F)(F)F)C(=O)N[C@@H]1C(=O)N(CCO)c2ncccc2-c2ccccc21 [crenigacestat]
CTG-3D luminescence at 96 h
Conditions	12.5 pM	0.00025 µM	0.005 µM	0.1 µM	1 µM	10 µM	100 µM	625 fM
[1], days in culture: 240	1.25	1.04	1.03	0.845	1.36	1.2	1.45	0.941
[1], days in culture: 260	2.03	0.875	1.52	1.34	1.54	1.84	1.12	1.44
[1], days in culture: 269	1.62	1.6	1.37	1.29	1.39	2.1	2	1.33
[1], days in culture: 327	1.46	1.4	1.63	1.87	1.24	1.06	1.64	1.76
[1], days in culture: 346	1.3	1.2	1.1	1.08	1.32	1.35	1.76	1.11
[1], days in culture: 364	1.4	1.08	1.35	1	1.1	1.27	1.1	1.43
[4], days in culture: 85	2.43	2.96	2.49	2.05	1.89	1.57	2.02	3.08
[5], days in culture: 105	1.19	1.65	1.35	1.59	2.01	1.98	1.62	1.56
[5], days in culture: 122	1.95	1.76	1.92	1.72	1.97	2.75	2	2.55
[5], days in culture: 163	1.93	2.2	2.01	2.48	2.19	2.38	1.88	1.86
[6], days in culture: 143	1.9	1.85	1.63	2.49	2.07	2.78	2.65	1.78
[6], days in culture: 162	2.11	2.3	1.74	2.93	1.87	2.96	2.74	2.57
[6], days in culture: 201	2.55	1.94	1.82	1.75	2.3	1.67	2.55	1.72

CTG-3D luminescence at 96 h
Conditions	12.5 pM	0.00025 µM	0.005 µM	0.1 µM	1 µM	10 µM	100 µM	625 fM
[2]	1.59 ± 0.68	1.76 ± 0.42	1.84 ± 0.24	1.57 ± 0.45	1.33 ± 0.45	1.42 ± 0.29	1.19 ± 0.29	1.47 ± 0.27
[3]	2.2 ± 0.74	2.4 ± 0.87	2.11 ± 0.45	2.4 ± 0.31	2.16 ± 0.72	2.09 ± 0.67	1.64 ± 0.37	2.07 ± 0.53
[4]	1.98 ± 0.17	2.37 ± 0.17	2.22 ± 0.31	1.95 ± 0.11	1.876 ± 0.007	1.78 ± 0.18	1.78 ± 0.23	2.32 ± 0.025

Nc1ccn([C@@H]2O[C@H](CO)[C@@H](O)C2(F)F)c(=O)n1 [gemcitabine]
CTG-3D luminescence at 96 h
Conditions	12.5 pM	0.00025 µM	0.005 µM	0.1 µM	1 µM	10 µM	100 µM	625 fM
[1], days in culture: 240	1.56	1.26	1.1	0.596	0.86	0.454	0.527	1.22
[1], days in culture: 260	2.47	0.95	1.44	0.622	0.617	0.522	0.302	1.77
[1], days in culture: 269	1.5	1.62	1.4	0.602	0.42	0.735	0.331	1.53
[1], days in culture: 327	1.48	0.959	1.31	0.497	0.506	0.37	0.222	1.83
[1], days in culture: 346	1.31	1.2	1.1	0.33	0.429	0.5	0.259	1.1
[1], days in culture: 364	1.41	1.23	1.3	0.275	0.401	0.332	0.147	1.33
[4], days in culture: 85	2.64	2.91	2.88	1.88	1.87	1.29	1.7	2.11
[5], days in culture: 105	1.5	1.57	1.43	0.795	0.966	0.91	0.516	1.82
[5], days in culture: 122	2.2	2.2	1.93	0.864	0.97	1.31	0.459	2.9
[5], days in culture: 163	1.49	1.85	1.78	1.61	1.15	0.775	0.456	2
[6], days in culture: 143	2.04	2.09	1.86	0.136	0.104	0.118	0.054	1.61
[6], days in culture: 162	2.63	2.42	1.38	0.146	0.113	0.113	0.0256	2.7
[6], days in culture: 201	2.68	1.42	1.5	0.0613	0.383	0.0794	0.0454	1.69

CTG-3D luminescence at 96 h
Conditions	12.5 pM	0.00025 µM	0.005 µM	0.1 µM	1 µM	10 µM	100 µM	625 fM
[2]	1.6 ± 0.29	1.96 ± 0.86	1.71 ± 0.37	0.511 ± 0.32	0.224 ± 0.069	0.406 ± 0.096	0.438 ± 0.083	1.65 ± 0.64
[3]	2.3 ± 0.95	2.24 ± 0.64	1.81 ± 0.36	1.35 ± 0.29	1.28 ± 0.19	1.18 ± 0.56	0.939 ± 0.15	2.08 ± 0.36
[4]	2.08 ± 0.065	2.07 ± 0.064	1.97 ± 0.2	1.88 ± 0.23	1.74 ± 0.063	1.54 ± 0.14	1.67 ± 0.11	2.23 ± 0.15

— the supplement of paper PMC8882468
